Source: publication PMC7447754 (Nature Communications, 2020)
Where a SMILES comes first, the peptide text is derived from it.

System: H1N1 virus
Conditions: pH 4.9

## CC[C@H](C)[C@H](NC(=O)[C@H](C)NC(=O)CNC(=O)[C@@H](N)CC(N)=O)C(=O)N[C@@H](CS)C(=O)N[C@@H](Cc1c[nH]c2ccccc12)C(=O)NCC(=O)N1CCC[C@H]1C(=O)N[C@@H](CS)C(=O)N1CCC[C@H]1C(=O)N[C@H](C(=O)N[C@@H](C)C(=O)N[C@@H](Cc1ccccc1)C(=O)N[C@@H](CCCNC(=N)N)C(=O)N[C@@H](CCC(N)=O)C(=O)N[C@H](C(=O)NCC(=O)N[C@@H](CC(N)=O)C(=O)N[C@@H](CS)C(=O)NCC(=O)N[C@@H](CCCNC(=N)N)C(=O)N[C@@H](Cc1ccccc1)C(=O)N[C@@H](CCCNC(=N)N)C(=O)N[C@H](C(=O)N[C@@H](CCCNC(=N)N)C(=O)N[C@@H](CS)C(=O)N[C@@H](CS)C(=O)N[C@@H](CCCNC(=N)N)C(=O)N[C@H](C(=O)N[C@@H](CCCNC(=N)N)C(=O)O)[C@@H](C)CC)C(C)C)[C@@H](C)CC)[C@@H](C)O [P9R] (H-NGAICWGPCPTAFRQIGNCGRFRVRCCRIR-OH)
  inhibition of viral fusion (virus-induced hemolysis): did not inhibit viral fusion
